# Measurements: patent US20150025131A1 (priority 2013, published 2015)
# Like-named read-outs stand apart in the source and are kept apart here.
# Legend:
# [1] = system: TNF-α production; assay: TNF-α production from PMA differentiated, LPS activated THP-1 cells (ELISA); format: cell-based, human; conditions: Homo sapiens, 4 h, read-out: inhibition of TNF-α production (IC50)
# Experimental: The symbol * and δ represents the P≦0.03 and P≦0.006, respectively.
# FIG. 2 depicts the effect of pentoxyfillin (PTX) on TNF-α production (pg/mL) Human monocytic leukemia THP-1 cells were differentiated and activated with 20 ng/mL of PMA and 50 ng/mL of LPS, respectively and incubated with different concentrations of PTX for 4h, the supernatant was analyzed for the level of TNF-α by ELISA. The symbol * represents P≦of 0.03.
# THP-1 (human monocytic leukemia) cells were maintained in RPMI-1640 supplemented with 10% FBS, 2 mmol/L glutamine, 5.5 mmol/L glucose, 50 μmol/L mercaptoethanol, 1 mmol/L sodium pyruvate, and 10 mmol/L HEPES and incubated at 37° C. in 5% CO2. Cells were grown in […] culture flask until they attained 70% confluency. Cells were then plated in 24-well tissue culture plates at a concentration of 2.5×10^5 cells/mL. Cells were differentiated into macrophages using PMA at a final concentration of 20 ng/mL and further incubated at 37° C. in 5% CO2 environment for 24 h. […] After addition of the compound cells were then incubated for 4 h for TNF-α production and 18 h for IL-1β production at 37° C. in 5% CO2. The supernatants were harvested and analyzed for the level of TNF-α and IL-1β, by human TNF-α and IL-1β Duo set ELISA kits, and according to the manufacturer's instructions.
# [2] = system: ROS production from mice peritoneal macrophages; assay: Luminol enhanced chemiluminescence oxidative burst, mice peritoneal macrophages; format: cell-based; conditions: Mus musculus, Peritoneal macrophage, serum opsonized zymosan, read-out: Myeloperoxidase dependent Oxidative Burst (IC50 μg/mL) Macrophages
# Experimental: (§1) Intracellular effect was determined using human peripheral whole blood phagocytes and isolated neutrophils and from mice peritoneum macrophages, where luminol-enhanced chemillumenescence assay was applied. The effect on myeloperoxidase independent ROS production was determined using lucigenin on murine macrophages RAW.267 cells.
# (§2) Table 2. […] 267 cells (murine macrophages). DPI is used as standard drug. Reading presents mean±SD of three determinations.
# NMRI mice of 25 to 30 gm weight were injected aseptically with 1 mL of heat inactivated fetal bovine serum (FBS) in the peritoneum cavity, using sterile 1 mL syringe and mice were kept for further 72 h. […] Cells were counted and concentration was adjusted to 1×10^6/mL for chemiluminescence assay.
# Luminol enhanced chemiluminescence technique was applied to study the effect of compound on ROS from phagocytes, Using whole blood, neutrophil and macrophages Briefly, 25 μL diluted whole blood (1:50 dilution in sterile HBSS^++) or 25 μL of PMNs (1×10^6), or 25 μL of isolated macrophages (1×10^6) were incubated with 25 μL of compound in triplicates and using three different concentrations (1, 10 and 100 μg/mL) using white 96 wells plates. […] Results were monitored as relative light unit (RLU) reading, with peak and total integral values set with repeated scans at 60 seconds intervals, and 1 second points measuring time.
# [3] = MTT cytotoxicity assay, MDBK; format: cell-based, bovine; conditions: bovine, MDBK bovine kidney cells, 48 h incubation, read-out: Cytotoxicity (IC50 μg/mL) MDBK cells
# Experimental: (§3) Cell cytotoxicity assay was performed using three different cell lines NIH 3T3 (mouse embryo, fibroblast cells), CC1 (rat, epithelial, liver cell) and MDBK (bovine kidney) cells using MTT (3-[4,5-dimethylthiazole-2-yl]-2,5-diphenyl-tetrazolium bromide) colorimetric assay. Briefly 3T3 were grown in DMEM, supplemented with 10% of fetal bovine serum (FBS), and 1% penicillin-streptomycin whereas CC1 (rat epithelial liver cells) were cultured in EMEM, 2 mM Glutamine, 1% Non-Essential Amino Acids (NEAA), 20 mM HEPES, 10% Foetal Bovine Serum (FBS) and 1% penicillin-streptomycin, and MDBK cells were grown in 10% of fetal bovine serum (FBS) in 75 cm^2 flask, and incubated in 5% CO2 incubator at 37° C. until they attain 70% confluency. Cells were then harvested by centrifuging at 200 g for 5 min at 25° C., counted using heamocytometer and their concentration was adjusted to 6×10^4 cells/mL. 100 μL of Cells were then plated in 96 well plate and incubated overnight. Next day the supernatant was carefully removed and 200 μL of fresh medium was added with three different concentration of compound (1, 10, 50) μg/mL. […] The extent of MTT reduction to formazan within cells was calculated by measuring the absorbance at 540 nm; using a micro plate reader (Spectra Max plus 340, Molecular Devices, Calif., USA). […] The percent inhibition was calculated by using the following formula: […]
# [4] = system: MDBK bovine kidney cells; assay: MTT cytotoxicity assay, MDBK; format: cell-based
# Experimental: as §3
# [5] = system: ROS production from human peripheral whole blood phagocytes; assay: Luminol enhanced chemiluminescence oxidative burst, whole blood; format: cell-based
# Experimental: as §1, §2
# Luminol enhanced chemiluminescence technique was applied to study the effect of compound on ROS from phagocytes, Using whole blood, neutrophil and macrophages Briefly, 25 μL diluted whole blood (1:50 dilution in sterile HBSS^++) or 25 μL of PMNs (1×10^6), or 25 μL of isolated macrophages (1×10^6) were incubated with 25 μL of compound in triplicates and using three different concentrations (1, 10 and 100 μg/mL) using white 96 wells plates. Wells received HBSS^++ and cells only without compound served as positive control. 25 μL of serum opsonized zymosan-A (SOZ), followed by 25 μL luminol (7×10^−5 M), was added to each well to maintain a volume of 100 μL/well. Plates were then incubated at 37° C. for 30 minutes in the thermostated chamber of the luminometer. Results were monitored as relative light unit (RLU) reading, with peak and total integral values set with repeated scans at 60 seconds intervals, and 1 second points measuring time.
smiles,measurement,setting,value
"COc1c(O)cc2oc(-c3ccc(O)c(O)c3)c(O)c(=O)c2c1O [Patuletin, 3,5,7,3′,4′-pentahydroxy-6-methoxy flavones]",IC50,[1],2.5 µg/mL
same,IC50,[2],1.9 µg/mL
same,IC50 at 48 h,[3],12.6 ± 0.4 µg/mL
same,cytotoxicity on MDBK bovine kidney cells (in words),[4],no cytotoxicity
same,IC50,"[5]; luminol enhanced, serum opsonized zymosan, read-out: Myeloperoxidase dependent Oxidative Burst (IC50 μg/mL) Whole blood",3.5 ± 0.5 µg/mL
same,IC50,"[5]; read-out: suppression of ROS production from whole blood (IC50), unit inferred",3.5 µg/mL
